Literature values as cited in patent publication US20030119753A1, “Novel ascorbic acid compounds, methods of synthesis and application use thereof” (priority 2001, published 2003).

Details: relative to ascorbic acid

more stable than ascorbic acid: 20 times
SMILES: O=C1O[C@H]([C@@H](O)CO)C(O)=C1OS(=O)(=O)O [L-ascorbate 2-sulphate]
